Assay results: patent publication US20240050428A1 (Cullgen (Shanghai), Inc., priority 2020, published 2024)
Like-named read-outs stand apart in the source and are kept apart here.

Legend:
MV4;11 cells = experiment: Cell viability assay (CellTiter-Glo) in MV4;11 cells, alone or with gilteritinib; assay type: cell-based; conditions: Homo sapiens, MV4;11 cells, CellTiter-Glo, read-out: MV4
MOLM-13 cells = experiment: Cell viability assay (CellTiter-Glo) in MOLM-13 cells, alone or with gilteritinib; assay type: cell-based; conditions: Homo sapiens, MOLM-13 cells, CellTiter-Glo
[1] = MV4-11, 72 h, compound alone (without gilteritinib), three days, 11 IC50
[2] = MV4-11, 72 h, with gilteritinib 10 nM, three days, 11 IC50 gilteritinib
[3] = MV4-11, 72 h, without gilteritinib, 3 days, 11 IC50
[4] = MOLM-13, 72 h, compound alone (without gilteritinib), three days, read-out: MOLM-13 IC50
[5] = MOLM-13, 72 h, with 20 nM gilteritinib, 3 days, read-out: MOLM-13 IC50 gilteritinib
[6] = MOLM-13, 72 h, with gilteritinib 20 nM, three days, read-out: MOLM-13 IC50 gilteritinib
[7] = MOLM-13, 72 h, without gilteritinib, 3 days, read-out: MOLM-13 IC50
[8] = MV4-11, 72 h, compound with gilteritinib 10 nM, three days, 11 IC50 gilteritinib
[9] = MOLM-13, 72 h, compound with gilteritinib 20 nM, three days, read-out: MOLM-13 IC50 gilteritinib
[10] = 72 h, compound alone (without gilteritinib), three days, 11 IC50
[11] = 72 h, with gilteritinib 10 nM, three days, 11 IC50 gilteritinib
[12] = 72 h, compound alone (without gilteritinib), three days, read-out: MOLM-13 IC50
[13] = 72 h, with gilteritinib 20 nM, three days, read-out: MOLM-13 IC50 gilteritinib

Row | Compound | IC50 (MV4;11 cells; [1]) | IC50 (MV4;11 cells; [2]) | IC50 (MOLM-13 cells; [4]) | IC50 (MOLM-13 cells; [6]) | IC50 (MV4;11 cells; [8]) | IC50 (MOLM-13 cells; [9]) | further results
1 | CN1C2CCC1CN(c1ccc3ncc(-c4cnn([C@H]5C[C@H](CCCNc6ccc7c(c6)C(=O)N(C6CCC(=O)NC6=O)C7=O)C5)c4)nc3c1)C2 (stereo partly drawn) [GS-409, 2-(2,6-dioxopiperidin-3-yl)-5-((3-(trans-3-(4-(7-(8-methyl-3,8-diazabicyclo[3.2.1]octan-3-yl)quinoxalin-2-yl)-1H-pyrazol-1-yl)cyclobutyl)propyl)amino)isoindoline-1,3-dione] | 10 to 100 nM | 10 to 100 nM | 10 to 100 nM | < 10 nM | – | – | –
2 | O=C1CCC(N2C(=O)c3ccc(NCCCN4CC(N5CCN(c6ccccn6)CC5)C4)cc3C2=O)C(=O)N1 (centres unmarked) | – | – | – | – | – | – | IC50 (MV4;11 cells; [10]): > 1000 nM; IC50 (MV4;11 cells; [11]): > 1000 nM; IC50 (MOLM-13 cells; [12]): > 1000 nM; IC50 (MOLM-13 cells; [13]): 10 to 100 nM
3 | O=C1CCC(N2C(=O)c3ccc(NCCCCCCN4CCC(O)CC4)cc3C2=O)C(=O)N1 (centres unmarked) [GS-331, 2-(2,6-Dioxopiperidin-3-yl)-5-((6-(4-hydroxypiperidin-1-yl)hexyl)amino)isoindoline-1,3-dione] | > 1000 nM | > 1000 nM | > 1000 nM | 100 to 1000 nM | – | – | –
4 | O=C1CCC(N2C(=O)c3ccc(NCCCCCC(=O)N4CCC(n5cc(C6CC6)cn5)CC4)cc3C2=O)C(=O)N1 (centres unmarked) [GS-064, 5-((6-(4-(4-Cyclopropyl-1H-pyrazol-1-yl)piperidin-1-yl)-6-oxohexyl)amino)-2-(2,6-dioxopiperidin-3-yl)isoindoline-1,3-dione] | – | – | – | – | – | – | IC50 (MV4;11 cells; MV4-11, 72 h, with 10 nM gilteritinib, 3 days, 11 IC50 gilteritinib): 27 nM; IC50 (MV4;11 cells; [3]): 349 nM; IC50 (MOLM-13 cells; [5]): 600 nM; IC50 (MOLM-13 cells; [7]): 520 nM
5 | Cc1cccc(-c2cn([C@H]3C[C@H](CNc4ccc5c(c4)C(=O)N(C4CCC(=O)NC4=O)C5=O)C3)nc2C2CCNCC2)n1 (stereo partly drawn) [GS-638, 2-(2,6-Dioxopiperidin-3-yl)-5-(((trans-3-(4-(6-methylpyridin-2-yl)-3-(piperidin-4-yl)-1H-pyrazol-1-yl)cyclobutyl)methyl)amino)isoindoline-1,3-dione] | > 1000 nM | – | > 1000 nM | – | > 1000 nM | > 1000 nM | –
6 | O=C1CCC(N2Cc3cc(OCCCN4CCC(n5cc(-c6cnc7ccccc7n6)cn5)CC4)ccc3C2=O)C(=O)N1 (centres unmarked) [GS-492, 3-(1-oxo-5-(3-(4-(4-(quinoxalin-2-yl)-1H-pyrazol-1-yl)piperidin-1-yl)propoxy)isoindolin-2-yl)piperidine-2,6-dione] | > 1000 nM | – | > 1000 nM | – | > 1000 nM | > 1000 nM | –
7 | O=C(CN1CC(N2CCN(c3ccccn3)CC2)C1)NCc1ccc2c(c1)C(=O)N(C1CCC(=O)NC1=O)C2=O (centres unmarked) [GS-345, N-((2-(2,6-Dioxopiperidin-3-yl)-1,3-dioxoisoindolin-5-yl)methyl)-2-(3-(4-(pyridin-2-yl)piperazin-1-yl)azetidin-1-yl)acetamide] | > 1000 nM | > 1000 nM | > 1000 nM | > 1000 nM | – | – | –
8 | O=C1CCC(N2C(=O)c3ccc(NCCCC(=O)N4CCN(c5ccccc5)CC4)cc3C2=O)C(=O)N1 (centres unmarked) [GS-319, 2-(2,6-Dioxopiperidin-3-yl)-5-((4-oxo-4-(4-phenylpiperazin-1-yl)butyl)amino)isoindoline-1,3-dione] | – | – | – | – | – | – | IC50 (MV4;11 cells; [10]): > 1000 nM; IC50 (MV4;11 cells; [11]): > 1000 nM; IC50 (MOLM-13 cells; [12]): > 1000 nM; IC50 (MOLM-13 cells; [13]): 10 to 100 nM

More lines, main results first:

Row | IC50 (MV4;11 cells; [1]) | IC50 (MV4;11 cells; [2]) | IC50 (MOLM-13 cells; [4]) | IC50 (MOLM-13 cells; [6]) | IC50 (MV4;11 cells; [8]) | IC50 (MOLM-13 cells; [9]) | Compound | further results
9 | < 10 nM | < 10 nM | < 10 nM | < 10 nM | – | – | O=C1CCC(N2C(=O)c3ccc(NCCCCCC(=O)N4CCC(c5cnc6cccc(Br)c6n5)CC4)cc3C2=O)C(=O)N1 (centres unmarked) [GS-060, 5-((6-(4-(8-Bromoquinoxalin-2-yl)piperidin-1-yl)-6-oxohexyl)amino)-2-(2,6-dioxopiperidin-3-yl)isoindoline-1,3-dione] | IC50 (MV4;11 cells; [3]): < 1 nM; IC50 (MOLM-13 cells; [5]): 0.06 nM; IC50 (MOLM-13 cells; [7]): 3.7 nM
10 | 10 to 100 nM | – | 10 to 100 nM | – | < 10 nM | < 10 nM | O=C1CCC(N2C(=O)c3ccc(NCCC4CC5(C4)CC(n4cc(-c6cnc7ccccc7n6)cn4)C5)cc3C2=O)C(=O)N1 (centres unmarked) [GS-564, 2-(2,6-Dioxopiperidin-3-yl)-5-((2-(6-(4-(quinoxalin-2-yl)-1H-pyrazol-1-yl)spiro[3.3]heptan-2-yl)ethyl)amino)isoindoline-1,3-dione] | –
11 | 10 to 100 nM | – | 100 to 1000 nM | – | < 10 nM | < 10 nM | O=C(CCC(F)(F)C(=O)N1CCC(n2cc(-c3cnc4ccccc4n3)cn2)CC1)NCc1ccc2c(c1)CN(C1CCC(=O)NC1=O)C2=O (centres unmarked) [GS-518, N-((2-(2,6-Dioxopiperidin-3-yl)-1-oxoisoindolin-5-yl)methyl)-4,4-difluoro-5-oxo-5-(4-(4-(quinoxalin-2-yl)-1H-pyrazol-1-yl)piperidin-1-yl)pentanamide] | –
12 | 10 to 100 nM | < 10 nM | < 10 nM | < 10 nM | – | – | O=C1CCC(N2Cc3c(Nc4ccnc(Nc5cccc(N6CCC(n7cc(-c8cnc9ccccc9n8)cn7)CC6)c5)n4)cccc3C2=O)C(=O)N1 (centres unmarked) [GS-025, 3-(1-Oxo-4-((2-((3-(4-(4-(quinoxalin-2-yl)-1H-pyrazol-1-yl)piperidin-1-yl)phenyl)amino)pyrimidin-4-yl)amino)isoindolin-2-yl)piperidine-2,6-dione] | –
13 | 10 to 100 nM | – | 100 to 1000 nM | – | < 10 nM | 10 to 100 nM | Cc1cccc(-c2cn([C@H]3C[C@H](CCCNc4ccc5c(c4)C(=O)N(C4CCC(=O)NC4=O)C5=O)C3)nc2C2CC2)n1 (stereo partly drawn) [GS-592, 5-((3-(trans-3-(3-Cyclopropyl-4-(6-methylpyridin-2-yl)-1H-pyrazol-1-yl)cyclobutyl)propyl)amino)-2-(2,6-dioxopiperidin-3-yl)isoindoline-1,3-dione] | –
14 | 100 to 1000 nM | 10 to 100 nM | > 1000 nM | 100 to 1000 nM | – | – | O=C1CCC(N2C(=O)c3ccc(NCCC[C@H]4C[C@H](n5cc(-c6cccc(N7CCOCC7)n6)c(C6CC6)n5)C4)cc3C2=O)C(=O)N1 (stereo partly drawn) [GS-246, 5-((3-(trans-3-(3-Cyclopropyl-4-(6-morpholinopyridin-2-yl)-1H-pyrazol-1-yl)cyclobutyl)propyl)amino)-2-(2,6-dioxopiperidin-3-yl)isoindoline-1,3-dione] | –
15 | 10 to 100 nM | – | 10 to 100 nM | – | 10 to 100 nM | < 10 nM | Cc1cccc2nc(-c3cnn(CCCCCCNc4ccc5c(c4)C(=O)N(C4CCC(=O)NC4=O)C5=O)c3)cnc12 (centres unmarked) [GS-512, 2-(2,6-dioxopiperidin-3-yl)-5-((6-(4-(5-methylquinoxalin-2-yl)-1H-pyrazol-1-yl)hexyl)amino)isoindoline-1,3-dione] | –
16 | 100 to 1000 nM | > 1000 nM | > 1000 nM | 100 to 1000 nM | – | – | O=C1CCC(N2C(=O)c3ccc(NCC4CCC(Cn5cc(-c6cnc7ccccc7n6)cn5)CC4)cc3C2=O)C(=O)N1 (centres unmarked) [GS-155, 2-(2,6-Dioxopiperidin-3-yl)-5-(((4-((4-(quinoxalin-2-yl)-1H-pyrazol-1-yl)methyl)cyclohexyl)methyl)amino)isoindoline-1,3-dione] | –
17 | 100 to 1000 nM | 10 to 100 nM | > 1000 nM | 10 to 100 nM | – | – | O=C1CCC(N2C(=O)c3ccc(NCCC[C@H]4C[C@H](n5cc(-c6cnc7c(Cl)cccc7n6)cn5)C4)cc3C2=O)C(=O)N1 (stereo partly drawn) [GS-219, 5-((3-(trans-3-(4-(5-Chloroquinoxalin-2-yl)-1H-pyrazol-1-yl)cyclobutyl)propyl)amino)-2-(2,6-dioxopiperidin-3-yl)isoindoline-1,3-dione] | –
18 | 100 to 1000 nM | 10 to 100 nM | 100 to 1000 nM | 10 to 100 nM | – | – | O=C1CCC(N2C(=O)c3ccc(NCCCC4CC(n5cc(-c6cnc7cccc(F)c7n6)cn5)C4)cc3C2=O)C(=O)N1 (centres unmarked) [GS-164, 2-(2,6-Dioxopiperidin-3-yl)-5-((3-(3-(4-(8-fluoroquinoxalin-2-yl)-1H-pyrazol-1-yl)cyclobutyl)propyl)amino)isoindoline-1,3-dione] | –
19 | 100 to 1000 nM | 100 to 1000 nM | > 1000 nM | > 1000 nM | – | – | O=C1CCC(N2Cc3cc(CCCCC4CC(n5cc(-c6cnc7ccccc7n6)cn5)C4)ccc3C2=O)C(=O)N1 (centres unmarked) [GS-226, 3-(1-Oxo-5-(4-(3-(4-(quinoxalin-2-yl)-1H-pyrazol-1-yl)cyclobutyl)butyl)isoindolin-2-yl)piperidine-2,6-dione] | –
20 | 100 to 1000 nM | 10 to 100 nM | 100 to 1000 nM | 10 to 100 nM | – | – | N#Cc1cccc2ncc(-c3cnn(CCCCCCNc4ccc5c(c4)C(=O)N(C4CCC(=O)NC4=O)C5=O)c3)nc12 (centres unmarked) [GS-165, 3-(1-(6-((2-(2,6-Dioxopiperidin-3-yl)-1,3-dioxoisoindolin-5-yl)amino)hexyl)-1H-pyrazol-4-yl)quinoxaline-5-carbonitrile] | –
